What was measured:
Experiment in all cases: HDAC6 fluorescence anisotropy assay
Settings in all cases: 25 °C
[1] = target: T1, Histone deacetylase 6 [440-798] (Danio rerio, UniProt F8W4B7)
T1 construct: 440-798
T1 sequence (F8W4B7 whole entry): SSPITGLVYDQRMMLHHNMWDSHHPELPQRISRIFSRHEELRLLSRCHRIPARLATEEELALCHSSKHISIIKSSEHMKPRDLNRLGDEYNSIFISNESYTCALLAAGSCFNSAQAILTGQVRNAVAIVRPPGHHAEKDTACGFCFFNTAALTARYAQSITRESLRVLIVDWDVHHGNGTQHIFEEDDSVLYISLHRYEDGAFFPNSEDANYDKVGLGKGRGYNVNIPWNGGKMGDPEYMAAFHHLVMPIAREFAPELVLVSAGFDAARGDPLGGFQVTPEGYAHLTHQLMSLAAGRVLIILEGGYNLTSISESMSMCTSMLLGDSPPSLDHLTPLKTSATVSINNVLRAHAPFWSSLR

[2] = target: T2, Histone deacetylase 6 [440-798,S531A] (Danio rerio, UniProt F8W4B7, S531A)
T2 construct: 440-798
T2 sequence (F8W4B7 as listed by the source S531A): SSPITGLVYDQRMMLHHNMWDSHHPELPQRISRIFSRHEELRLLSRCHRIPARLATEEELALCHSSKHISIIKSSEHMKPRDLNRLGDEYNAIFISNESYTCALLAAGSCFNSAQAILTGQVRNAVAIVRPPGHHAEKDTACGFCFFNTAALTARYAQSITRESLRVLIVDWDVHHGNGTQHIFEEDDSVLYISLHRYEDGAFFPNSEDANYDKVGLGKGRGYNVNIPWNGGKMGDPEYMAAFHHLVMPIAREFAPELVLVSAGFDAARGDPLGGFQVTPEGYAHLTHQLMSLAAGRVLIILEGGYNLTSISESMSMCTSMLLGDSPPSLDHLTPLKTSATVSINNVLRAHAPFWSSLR

[3] = target: T3, Histone deacetylase 6 [60-420,H82F,F202Y] (Danio rerio, UniProt F8W4B7, F202Y/H82F)
T3 construct: 60-420
T3 sequence (F8W4B7 as listed by the source H82F/F202Y): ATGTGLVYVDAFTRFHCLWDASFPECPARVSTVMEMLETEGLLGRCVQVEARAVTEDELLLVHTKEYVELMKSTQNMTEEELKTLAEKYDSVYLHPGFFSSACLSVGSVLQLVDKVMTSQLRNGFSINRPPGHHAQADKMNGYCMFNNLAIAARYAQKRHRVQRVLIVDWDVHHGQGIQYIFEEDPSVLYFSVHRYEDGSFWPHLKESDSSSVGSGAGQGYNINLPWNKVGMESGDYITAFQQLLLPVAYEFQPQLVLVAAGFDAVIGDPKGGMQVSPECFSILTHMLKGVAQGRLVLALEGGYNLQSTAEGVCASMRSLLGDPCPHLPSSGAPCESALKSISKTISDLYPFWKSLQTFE

[4] = target: T4, Histone deacetylase 6 [60-420] (Danio rerio, UniProt F8W4B7)
T4 construct: 60-420
T4 sequence (F8W4B7 whole entry): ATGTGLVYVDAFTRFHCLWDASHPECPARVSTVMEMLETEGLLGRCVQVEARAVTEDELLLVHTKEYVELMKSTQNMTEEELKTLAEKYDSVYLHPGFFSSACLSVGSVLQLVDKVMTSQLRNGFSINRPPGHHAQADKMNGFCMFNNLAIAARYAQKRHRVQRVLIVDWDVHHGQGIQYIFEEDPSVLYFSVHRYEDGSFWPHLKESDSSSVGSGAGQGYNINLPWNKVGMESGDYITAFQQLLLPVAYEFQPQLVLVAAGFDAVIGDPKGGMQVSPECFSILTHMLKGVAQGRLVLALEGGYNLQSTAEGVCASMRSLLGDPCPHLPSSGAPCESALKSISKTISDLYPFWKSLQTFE

[5] = target: T5, Histone deacetylase 6 [84-835,H255V] (Homo sapiens, UniProt Q9UBN7, H255V)
T5 construct: 84-835
T5 sequence (Q9UBN7 84-835 H255V): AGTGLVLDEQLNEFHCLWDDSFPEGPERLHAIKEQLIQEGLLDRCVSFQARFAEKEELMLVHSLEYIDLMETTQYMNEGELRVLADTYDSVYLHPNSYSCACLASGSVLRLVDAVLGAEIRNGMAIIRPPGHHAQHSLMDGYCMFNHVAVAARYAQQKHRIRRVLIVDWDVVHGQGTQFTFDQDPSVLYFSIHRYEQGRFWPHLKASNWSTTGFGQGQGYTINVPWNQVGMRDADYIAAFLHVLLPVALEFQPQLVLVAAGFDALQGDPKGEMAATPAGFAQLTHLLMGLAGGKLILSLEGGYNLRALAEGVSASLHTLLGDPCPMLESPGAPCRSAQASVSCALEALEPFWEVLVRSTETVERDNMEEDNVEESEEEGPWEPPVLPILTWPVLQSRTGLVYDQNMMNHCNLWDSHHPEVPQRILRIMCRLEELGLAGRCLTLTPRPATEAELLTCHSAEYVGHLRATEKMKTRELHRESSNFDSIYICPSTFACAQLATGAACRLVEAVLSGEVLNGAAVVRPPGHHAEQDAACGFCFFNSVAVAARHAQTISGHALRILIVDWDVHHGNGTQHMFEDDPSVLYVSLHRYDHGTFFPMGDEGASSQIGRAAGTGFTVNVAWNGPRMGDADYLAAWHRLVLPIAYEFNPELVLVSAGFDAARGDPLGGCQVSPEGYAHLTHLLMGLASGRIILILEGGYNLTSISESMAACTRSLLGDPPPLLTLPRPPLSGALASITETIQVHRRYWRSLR

[6] = target: T6, Histone deacetylase 6 [84-835,H651V] (Homo sapiens, UniProt Q9UBN7, H651V)
T6 construct: 84-835
T6 sequence (Q9UBN7 84-835 H651V): as the sequence (Q9UBN7 84-835 H255V) above, with V172H, H568V counted along it

[7] = target: T7, Histone deacetylase 6 [84-835] (Homo sapiens, UniProt Q9UBN7)
T7 construct: 84-835
T7 sequence (Q9UBN7 whole entry): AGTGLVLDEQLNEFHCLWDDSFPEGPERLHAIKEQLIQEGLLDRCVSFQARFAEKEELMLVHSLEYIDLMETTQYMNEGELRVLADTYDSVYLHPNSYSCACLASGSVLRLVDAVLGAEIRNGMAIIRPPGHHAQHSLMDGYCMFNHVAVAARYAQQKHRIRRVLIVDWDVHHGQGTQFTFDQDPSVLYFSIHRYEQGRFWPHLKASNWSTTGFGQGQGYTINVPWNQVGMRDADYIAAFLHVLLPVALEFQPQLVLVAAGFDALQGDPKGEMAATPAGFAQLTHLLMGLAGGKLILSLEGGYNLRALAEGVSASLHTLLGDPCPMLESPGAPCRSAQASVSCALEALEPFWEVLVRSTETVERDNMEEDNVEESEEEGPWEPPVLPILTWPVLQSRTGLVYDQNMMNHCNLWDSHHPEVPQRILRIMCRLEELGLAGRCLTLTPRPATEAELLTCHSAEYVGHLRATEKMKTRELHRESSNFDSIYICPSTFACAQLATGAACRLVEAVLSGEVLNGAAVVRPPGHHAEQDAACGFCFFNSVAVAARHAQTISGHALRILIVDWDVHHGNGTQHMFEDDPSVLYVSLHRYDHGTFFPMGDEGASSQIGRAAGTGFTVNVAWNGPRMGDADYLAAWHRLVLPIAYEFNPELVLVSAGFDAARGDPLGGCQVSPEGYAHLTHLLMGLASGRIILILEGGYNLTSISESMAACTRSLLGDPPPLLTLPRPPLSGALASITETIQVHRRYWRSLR

IC50 [1] [nM]	Ki [1] [nM]	Structure (SMILES)	further results
1.9	1.1	O=C(/C=C/c1cccc(S(=O)(=O)Nc2ccccc2)c1)NO [Belinostat]	–
≤ 1.1	0.6	O=C(CCCCCCC(=O)Nc1ccccc1)NO [Zolinza]	–

The next lines start with the compound.

Structure (SMILES)	IC50 [1] [nM]	Ki [1] [nM]	further results
O=C(NO)c1ccc(CC(=O)N(CCO)c2ccccc2)cc1 [HPOB]	1.8	1	–
Cc1[nH]c2ccccc2c1CCNCc1ccc(C=CC(=O)NO)cc1 [Panobinostat]	2.5	1.4	–
CC(=O)C(F)(F)F [Trifluoroketone]	1400	800	–
O=C(CCCCCCC(=O)Nc1ccc(-c2c3ccc(=O)cc-3oc3cc(O)ccc23)c(C(=O)O)c1)NO [fl-SAHA]	–	–	Kd [2]: 170 nM; Kd [1]: 50 nM; Kd [3]: 2900 nM; Kd [4]: 1600 nM; Kd [5]: 240 nM; Kd [6]: 30000 nM; Kd [7]: 300 nM

From BindingDB's records for doi:10.1038/nchembio.2134 (University of Pennsylvania, 2016)
